Reference: publication PMC11963983 (2025)

Test system: ΔSite1-PK-riboCdA (RNA, riboswitch) GGGAAGACAAACAUGCCGAAUCCGAAAGGUACCGAGGAACCGCUUUUUGGCGCUAAUCUGCUGUGAAGCAGCAGUAGGGAUACCUUCUGUCCCGCGCGCGACAGCUAACUCGGGAGGGCAUAAAGGAAGGAGAUUUGCAGUG
Assay: smFRET, high-FRET
Settings: 50 mM Na+, 0.75 mM Mg2+; 10 mM Tris-HCl pH 8.0, room temperature

- EC50: ~ 78.9 μM
Structure (SMILES): Nc1ncnc2c1ncn2[C@@H]1O[C@@H]2COP(=O)(O)O[C@H]3[C@@H](O)[C@H](n4cnc5c(N)ncnc54)O[C@@H]3COP(=O)(O)O[C@H]2[C@H]1O
